Source: US20240174744A1, “METHODS OF TREATMENT USING PROTEIN BINDERS TO IRHOM2 EPITOPES” (SCIRHOM GMBH, priority 2021, published 2024)

Test system: PMA-induced release of IL-6R from PBMCs from patients suffering from rheumatoid arthritis
Assay: ELISA-based IL-6R release assay, PBMCs from RA-patients
Format: cell-based
Conditions: Homo sapiens, PBMC; chimeric antibodies (CHO) 1 μg/ml; Batimastat 10 μM; PMA 25 ng/ml, 24 hours
Description: In contrast to Example 34, where the inhibitory effects of the antibodies of the present disclosure on PMA-induced release of endogenous IL-6R from primary human material obtained from healthy donors using peripheral blood mononuclear cells (PBMCs) were tested, this analysis was conducted to analyze the inhibitory effects of the antibodies of the present disclosure on PMA-induced release of endogenous IL-6R from primary human material obtained from patients suffering from rheumatoid arthritis (RA-patients).
In brief, on day 1, Nunc black MaxiSorp® 96-well plates (Thermo Fisher Scientific, USA) were coated overnight with 100 μl per well of mouse anti-human IL-6R capture antibody (provided as part of the DuoSet ELISA kit) at 4 μg/ml TBS at 4° C. […] Using an infinite M1000 (Tecan Group, Switzerland) microplate reader, the fluorescence of each well was collected at an excitation wavelength of 435 nm and an emission wavelength of 555 nm.

Molecule `CNC(=O)[C@H](Cc1ccccc1)NC(=O)[C@H](CC(C)C)[C@H](CSc1cccs1)C(=O)NO` [Batimastat] has an inhibition at 10 µM of 104%.
